{"source": "patent US12492403B2", "about": "“Aptamers and the use thereof in the treatment of cancer” (FUNDACIÓN PARA LA INVESTIGACIÓN BIOMÉDICA DEL HOSPITAL …, priority 2018, dated 2025)", "key": {"4T1 cells": {"system": "4T1 cells", "assay": "Transwell migration assay in 4T1 cells", "format": "cell-based, mouse", "conditions": "500 nM, 24 hours migration", "procedure": "FIG. 21A-21E. In vivo efficacy of apMNKQ2 in a mouse metastatic model with an orthotopic xenograft of 4T1 cells. (A) Effect of apMNKQ2 aptamer on the proliferation of 4T1 cells (mouse breast tumor line). 4T1 cells were seeded in p96 at a density of 1.5×10^3 cells/well. […] The graph (FIG. 21A) represents the means±SEM of 3 independent experiments. (B) Effect of apMNKQ2 aptamer on migration and invasion of 4T1 cells. Cells were seeded in p6 at a density of 2×10^5 cells/well and transfected with 500 nM apMNKQ2 at 24 hours. […] At 24 hours (migration) or 48 h (invasion), the transwell membranes were stained with Hoechst and the cells that had passed through the fluorescence microscopy were quantified. […] The number of metastases is analyzed by the reverse staining method (with Chinese ink) and the metastases grouped according to their size in four groups (0.5, 1, 2 and >2). […]\nCell migration and invasion assays were performed using transwell (Corning, USA). […] After that time, they were collected, counted, and reseeded 4×10^4 cells in 300 μl of a serum-free complete medium inside the transwell (migration) or a transwell on which a layer of 100 μL of Matrigel (Corning, USA) (invasion) had previously been polymerized. […] Finally, two washes in PBS were performed, and 5 photographs of each membrane of the transwell were taken using a fluorescence microscope (Olympus IX70). […]"}, "MDA-MB-231 cells": {"system": "MDA-MB-231 cells", "assay": "Apoptosis by annexin V/propidium iodide flow cytometry", "format": "cell-based, human", "conditions": "MDA-MB-231, working concentration 400 nM, 24 hours", "procedure": "(§1) FIGS. 10A-10C. Analysis of the effect of the aptamer on apoptosis with annexin V in breast cell lines. MCF7 (FIG. 10A), MDA-MB-231 (FIG. 10B), and MDA-MB-468 (FIG. 10C) cells were seeded in 6-well plates at a density of 2.5×10^5 cells/well and transfected at 24 hours with apMNKQ2 at the set working concentrations. After 24 hours, the cells were collected, fixed, and stained with annexin V-FITC and propidium iodide. Finally, they were analyzed by cytometry. The bars represent the mean±SEM of 3 independent experiments (*p<0.05, **p<0.01, and ***p<0.001).\n(§2) The assays were carried out by seeding 5×10^5 cells/well in 6-well plates and transfecting the cells 24 hours later. After 24 hours of transfection, the cells were collected and washed twice with PBS. They were then resuspended in a 1× binding buffer and left at a concentration of 1×10^6 cells/mL. Aliquots of 10^5 cells were separated from the preceding solution, as many as the number of treatments, and the annexin V and propidium iodide dyes were added to obtain: a double negative control (without labeling, living cells), a double positive for both types of labeling (late apoptotic cells and necrotic cells will be labeled), and cells labeled separately with annexin V and propidium iodide. They were incubated in darkness for 15 minutes at room temperature and brought to a final volume of 500 μL with a 1× binding buffer. Finally, the cells were passed through a flow cytometer (BD FACSCalibur™, BDBiosciences, USA) within a time no more than 1 hour after labeling. The data obtained was analyzed by means of the Flowing software 2.5.1 program.\n(§3) The translocation of the […] from the inner face of the plasma membrane of the cells to the outer face by translocases is a process characteristic of apoptotic cells. To study this process, assays with annexin V-fluorescein (FITC) were performed in three cell lines. This recombinant protein binds to the phosphatidylserine residues exposed on the outer face of the plasma membrane of apoptotic cells. Together with said recombinant protein, propidium iodide (IP), an impermeable DNA marker that only enters cells when the membrane is compromised, was also used. To perform these assays, the cells were transfected with apMNKQ2 and with the control aptamer AT at the working concentrations. At 24 hours, the cells were collected, fixed, and stained with annexin V-FITC and propidium iodide. Finally, the cells were analyzed by means of flow cytometry and differentiation was made between non-apoptotic cells (annexin V-FICT negative/IP negative), apoptotic cells (annexin V-FICT positive/IP negative), late apoptotic cells (annexin V-FICT positive/IP positive), and necrotic cells (annexin V-FITC negative/IP positive)."}, "MDA-MB-468 cells": {"system": "MDA-MB-468 cells", "assay": "Apoptosis by annexin V/propidium iodide flow cytometry", "format": "cell-based, human", "conditions": "MDA-MB-468, working concentration 50 nM, 24 hours", "procedure": "as §1, §2, §3"}, "MCF7 cells": {"system": "MCF7 cells", "assay": "Apoptosis by annexin V/propidium iodide flow cytometry", "format": "cell-based, human", "conditions": "MCF7, working concentration 150 nM, 24 hours", "procedure": "as §1, §2, §3"}}, "data": [{"substance": "5′TGGGGTGGGCGGGCGGGGGTGGGGGTGGT-3′ (DNA, backbone and methylation of C not given here; further chemistry not fully specified) [apMNKQ2]", "values": [{"measurement": "migration of 4T1 cells", "setting": "4T1 cells", "value": "significantly decrease"}, {"measurement": "induction of apoptosis (annexin V-FITC/propidium iodide)", "setting": "MDA-MB-231 cells", "value": "capable of inducing apoptosis"}, {"measurement": "induction of apoptosis (annexin V-FITC/propidium iodide)", "setting": "MDA-MB-468 cells", "value": "greater and statistically significant"}, {"measurement": "induction of apoptosis (annexin V-FITC/propidium iodide)", "setting": "MCF7 cells", "value": "capable of inducing apoptosis"}, {"measurement": "late apoptosis with respect to the control", "setting": "MCF7 cells", "value": "statistically significant"}]}]}
